Reference: US6525001B1, “Substituted pyrimidine and pyridine herbicides” (Mid-American Commercialization Corporation, priority 1997, dated 2003)

Experiments:
Format in all cases: in vivo
Set-up in all cases: key: 0 is no effect; 10 is complete control
rice (Oryza sativa) = assay: Test B flood test; details: for Plant response rating, Rice: Postemergence (flood test species)
In short: (§1)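 Read-out is a visual response score from 0 (no effect) to 10 (complete control), assigned by comparison with untreated controls. Treatment was applied at the 2-leaf stage, and plants stayed in the greenhouse for twelve to sixteen days before scoring.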

[1] = system: smallflower flatsedge (Cyperus difformis); assay: Test B flood test; details: for Plant response rating, S. Flatsedge: Postemergence (flood test species)
In short: as §1

[2] = system: bamyardgrass (Echinochloa crus-galli); assay: Test B flood test; details: for Plant response rating, Barnyardgrass: Postemergence (flood test species)
In short: as §1

[3] = system: duck salad (Heteranthera limosa); assay: Test B flood test; details: for Plant response rating, Ducksalad: Postemergence (flood test species)
In short: as §1

[4] = system: velvetleaf (Abutilon theophrasti); assay: Test B pre-/postemergence
In short: (§2)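 Compounds in a surfactant-containing, non-phytotoxic solvent blend are applied to freshly planted seed (preemergence) and, concurrently, to seedlings of 2 to 18 cm at 1–4 leaves (postemergence). Plants stay in the greenhouse twelve to sixteen days and are then scored visually from 0 (no effect) to 10 (complete control).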

[5] = system: wheat (Triticum aestivum); assay: Test B pre-/postemergence
In short: as §2

[6] = system: cocklebur (Xanthium strumarium); assay: Test B pre-/postemergence
In short: as §2

[7] = system: sugar beet (Beta vulgaris); assay: Test B pre-/postemergence
In short: as §2

[8] = system: purple nutsedge (Cyperus rotundus); assay: Test B pre-/postemergence
In short: as §2

rape (Brassica napus) = assay: Test B pre-/postemergence
In short: as §2

[9] = system: blackgrass (Alopecurus myosuroides); assay: Test B pre-/postemergence
In short: as §2

[10] = system: pigweed (Amaranthus retroflexus); assay: Test B pre-/postemergence
In short: as §2

soybean (Glycine max) = assay: Test B pre-/postemergence
In short: as §2

[11] = system: crabgrass (Digitaria sanguinalis); assay: Test B pre-/postemergence
In short: as §2

corn (Zea mays) = assay: Test B pre-/postemergence
In short: as §2

[12] = Rate 62 g/ha, Postemergence (flood test)
[13] = Rate 125 g/ha, Postemergence section (flood test species)
[14] = Preemergence, Rate 62 g/ha, scale of 0 to 10

## Cc1cnc(-n2ccc(C(F)(F)C(F)(F)F)n2)nc1C(=O)c1cccc(C(F)(F)F)c1 [Compound 68]
Rice (Oryza sativa); [12]
  Rice plant response rating: 0
Rice (Oryza sativa); [13]
  Rice plant response rating: 1
Rice (Oryza sativa); Rate 250 g/ha
  Plant response rating, Rice: 3
Rice (Oryza sativa); Rate 500 g/ha
  Plant response rating, Rice: 3
[1]; [12]
  S. Flatsedge plant response rating: 5
[1]; [13]
  S. Flatsedge plant response rating: 7
[1]; Rate 250 g/ha
  Plant response rating, S. Flatsedge: 7
[1]; Rate 500 g/ha
  Plant response rating, S. Flatsedge: 7
[2]; [12]
  Barnyardgrass plant response rating: 2
[2]; [13]
  Barnyardgrass plant response rating: 3
[2]; Rate 250 g/ha
  Plant response rating, Barnyardgrass: 4
[2]; Rate 500 g/ha
  Plant response rating, Barnyardgrass: 4
[3]; [12]
  Ducksalad plant response rating: 0
[3]; [13]
  Ducksalad plant response rating: 1
[3]; Rate 250 g/ha
  Plant response rating, Ducksalad: 2
[3]; Rate 500 g/ha
  Plant response rating, Ducksalad: 3
[4]; [14]
  Plant response rating, Velvetleaf: 2
[4]; Rate 62 g/ha, Postemergence
  Velvetleaf plant response rating: 6
[4]; Rate 125 g/ha, Postemergence
  Velvetleaf plant response rating: 7
[4]; Rate 125 g/ha, Preemergence
  Plant response rating, Velvetleaf: 7
[4]; Rate 250 g/ha, Postemergence
  Plant response rating, Velvetleaf: 7
[4]; Rate 250 g/ha, Preemergence
  Plant response rating, Velvetleaf: 7
[4]; Rate 500 g/ha, Postemergence
  Plant response rating, Velvetleaf: 8
[4]; Rate 500 g/ha, Preemergence
  Plant response rating, Velvetleaf: 8
[5]; [14]
  Plant response rating, Wheat: 1
[5]; Rate 62 g/ha, Postemergence
  Wheat plant response rating: 2
[5]; Rate 125 g/ha, Postemergence
  Wheat plant response rating: 2
[5]; Rate 125 g/ha, Preemergence
  Plant response rating, Wheat: 1
[5]; Rate 250 g/ha, Postemergence
  Plant response rating, Wheat: 2
[5]; Rate 250 g/ha, Preemergence
  Plant response rating, Wheat: 2
[5]; Rate 500 g/ha, Postemergence
  Plant response rating, Wheat: 4
[5]; Rate 500 g/ha, Preemergence
  Plant response rating, Wheat: 4
[6]; [14]
  Plant response rating, Cocklebur: 0
[6]; Rate 62 g/ha, Postemergence
  Cocklebur plant response rating: 3
[6]; Rate 250 g/ha, Postemergence
  Plant response rating, Cocklebur: 7
[6]; Rate 250 g/ha, Preemergence
  Plant response rating, Cocklebur: 2
[6]; Rate 500 g/ha, Postemergence
  Plant response rating, Cocklebur: 7
[6]; Rate 500 g/ha, Preemergence
  Plant response rating, Cocklebur: 8
[7]; [14]
  Plant response rating, Sugarbeets: 9
[7]; Rate 62 g/ha, Postemergence
  Sugarbeets plant response rating: 10
[7]; Rate 125 g/ha, Postemergence
  Sugarbeets plant response rating: 10
[7]; Rate 125 g/ha, Preemergence
  Plant response rating, Sugarbeets: 10
[7]; Rate 250 g/ha, Postemergence
  Plant response rating, Sugarbeets: 10
[7]; Rate 250 g/ha, Preemergence
  Plant response rating, Sugarbeets: 10
[7]; Rate 500 g/ha, Postemergence
  Plant response rating, Sugarbeets: 10
[7]; Rate 500 g/ha, Preemergence
  Plant response rating, Sugarbeets: 10
[8]; [14]
  Plant response rating, Nutsedge: 0
[8]; Rate 62 g/ha, Postemergence
  Nutsedge plant response rating: 0
[8]; Rate 125 g/ha, Postemergence
  Nutsedge plant response rating: 0
[8]; Rate 125 g/ha, Preemergence
  Plant response rating, Nutsedge: 0
[8]; Rate 250 g/ha, Postemergence
  Plant response rating, Nutsedge: 0
[8]; Rate 250 g/ha, Preemergence
  Plant response rating, Nutsedge: 0
[8]; Rate 500 g/ha, Preemergence
  Plant response rating, Nutsedge: 0
Rape (Brassica napus); [14]
  Plant response rating, Rape: 2
Rape (Brassica napus); Rate 62 g/ha, Postemergence
  Rape plant response rating: 6
Rape (Brassica napus); Rate 125 g/ha, Postemergence
  Rape plant response rating: 6
Rape (Brassica napus); Rate 125 g/ha, Preemergence
  Plant response rating, Rape: 3
Rape (Brassica napus); Rate 250 g/ha, Preemergence
  Plant response rating, Rape: 4
Rape (Brassica napus); Rate 500 g/ha, Postemergence
  Plant response rating, Rape: 7
Rape (Brassica napus); Rate 500 g/ha, Preemergence
  Plant response rating, Rape: 8
[9]; [14]
  Plant response rating, Blackgrass: 3
[9]; Rate 62 g/ha, Postemergence
  Blackgrass plant response rating: 2
[9]; Rate 125 g/ha, Postemergence
  Blackgrass plant response rating: 3
[9]; Rate 125 g/ha, Preemergence
  Plant response rating, Blackgrass: 5
[9]; Rate 250 g/ha, Postemergence
  Plant response rating, Blackgrass: 4
[9]; Rate 250 g/ha, Preemergence
  Plant response rating, Blackgrass: 7
[9]; Rate 500 g/ha, Postemergence
  Plant response rating, Blackgrass: 5
[9]; Rate 500 g/ha, Preemergence
  Plant response rating, Blackgrass: 7
[10]; [14]
  Plant response rating, Redroot pigweed: 8
[10]; Rate 62 g/ha, Postemergence
  Redroot pigweed plant response rating: 9
[10]; Rate 125 g/ha, Postemergence
  Redroot pigweed plant response rating: 10
[10]; Rate 125 g/ha, Preemergence
  Plant response rating, Redroot pigweed: 9
[10]; Rate 250 g/ha, Postemergence
  Plant response rating, Redroot pigweed: 10
[10]; Rate 250 g/ha, Preemergence
  Plant response rating, Redroot pigweed: 10
[10]; Rate 500 g/ha, Postemergence
  Plant response rating, Redroot pigweed: 10
[10]; Rate 500 g/ha, Preemergence
  Plant response rating, Redroot pigweed: 10
Soybean (Glycine max); [14]
  Plant response rating, Soybean: 0
Soybean (Glycine max); Rate 62 g/ha, Postemergence
  Soybean plant response rating: 3
Soybean (Glycine max); Rate 125 g/ha, Postemergence
  Soybean plant response rating: 5
Soybean (Glycine max); Rate 125 g/ha, Preemergence
  Plant response rating, Soybean: 1
Soybean (Glycine max); Rate 250 g/ha, Postemergence
  Plant response rating, Soybean: 7
Soybean (Glycine max); Rate 250 g/ha, Preemergence
  Plant response rating, Soybean: 2
Soybean (Glycine max); Rate 500 g/ha, Postemergence
  Plant response rating, Soybean: 7
Soybean (Glycine max); Rate 500 g/ha, Preemergence
  Plant response rating, Soybean: 2
[11]; [14]
  Plant response rating, Crabgrass: 3
[11]; Rate 62 g/ha, Postemergence
  Crabgrass plant response rating: 5
[11]; Rate 125 g/ha, Postemergence
  Crabgrass plant response rating: 8
[11]; Rate 125 g/ha, Preemergence
  Plant response rating, Crabgrass: 4
[11]; Rate 250 g/ha, Postemergence
  Plant response rating, Crabgrass: 8
[11]; Rate 250 g/ha, Preemergence
  Plant response rating, Crabgrass: 9
[11]; Rate 500 g/ha, Postemergence
  Plant response rating, Crabgrass: 8
[11]; Rate 500 g/ha, Preemergence
  Plant response rating, Crabgrass: 10
Corn (Zea mays); [14]
  Plant response rating, Corn: 0
Corn (Zea mays); Rate 62 g/ha, Postemergence
  Corn plant response rating: 1
Corn (Zea mays); Rate 125 g/ha, Postemergence
  Corn plant response rating: 1
Corn (Zea mays); Rate 125 g/ha, Preemergence
  Plant response rating, Corn: 1
Corn (Zea mays); Rate 250 g/ha, Postemergence
  Plant response rating, Corn: 2
Corn (Zea mays); Rate 250 g/ha, Preemergence
  Plant response rating, Corn: 1
Corn (Zea mays); Rate 500 g/ha, Postemergence
  Plant response rating, Corn: 2
Corn (Zea mays); Rate 500 g/ha, Preemergence
  Plant response rating, Corn: 1
